Where two headings read alike, the source gives them in different places.
Test system: ring stage parasites
Assay: Parasite growth potency assay, 72 hours, LDH readout
Format: cell-based
Method in brief: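 Parasite growth was quantified by LDH assay after a −80 °C freeze-thaw. Before that, compound was incubated for 72 h at 37 °C under humidified gas with ring-stage cultures adjusted to 0.7% parasitemia and 2% haematocrit in serum- and albumax-supplemented RPMI-Hepes.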

[1] = 72 h, parasite growth measured by LDH assay after 72 hours at 37° C., 0.7% rings, 2% haematocrit, read-out: EC50
[2] = parasite growth measured by LDH assay after 72 hours at 37° C., 0.7% rings, 2% haematocrit, read-out: EC50

| SMILES | EC50 [1] [nM] | other results |
| --- | --- | --- |
| CC1(C)CC(=O)N(Cc2cccc(C(=O)N[C@@H]3c4ccccc4OC(C)(C)C3(C)O)c2)C(=N)N1 (stereo in doubt) [Example 185, N-(3-hydroxy-2,2,3-trimethyl-chroman-4-yl)-3-[(2-imino-4,4-dimethyl-6-oxo-hexahydropyrimidin-1-yl)methyl]benzamide] | 62.5 | – |
| CCC[C@H](c1cccc(C(=O)N[C@H]2CCOc3ccccc32)c1)N1C(=N)N[C@](CC2CC2)(c2ccccc2)CC1=O [Example 68, [(4S)-1-[(1R)-1-[3-[[(4S)-chroman-4-yl]carbamoyl]phenyl]butyl]-4-(cyclopropylmethyl)-6-oxo-4-phenyl-hexahydropyrimidin-2-ylidene]ammonium; 2,2,2-trifluoroacetate] | 72.2 | – |
| CC(C)[C@]1(C)CC(=O)N([C@H](C)c2cccc(C(=O)N[C@H]3CCOc4ccccc43)c2)C(=N)N1 [Example 25, [(4S)-1-[1-[3-[[(4S)-chroman-4-yl]carbamoyl]phenyl]ethyl]-4-isopropyl-4-methyl-6-oxo-hexahydropyrimidin-2-ylidene]ammonium; 2,2,2-trifluoroacetate] | 4.4 | – |
| CC[C@@]1(C(C)C)CC(=O)N(Cc2cc(F)cc(C(=O)N[C@H]3CCOc4ccccc43)c2)C(=N)N1 [Example 60, [(4S)-1-[[3-[[(4S)-chroman-4-yl]carbamoyl]-5-fluoro-phenyl]methyl]-4-ethyl-4-isopropyl-6-oxo-hexahydropyrimidin-2-ylidene]ammonium; 2,2,2-trifluoroacetate] | 5.8 | – |
| CCC1(CC)CC(=O)N([C@H](c2cccc(OS(=O)(=O)F)c2)c2cccc(C(=O)N[C@H]3CCOc4ccccc43)c2)C(=N)N1 [Example 149A, [1-[[3-[[(4S)-chroman-4-yl]carbamoyl]phenyl]-(3-fluorosulfonyloxyphenyl)methyl]-4,4-diethyl-6-oxo-hexahydropyrimidin-2-ylidene]ammonium; 2,2,2-trifluoroacetate] | – | EC50 (72 h): 1.5 nM |
| CC[C@@]1(C(C)C)CC(=O)N(Cc2cc(F)cc(C(=O)N[C@@H]3c4ccccc4C[C@H]3O)c2)C(=N)N1 [Example 61, [(4S)-4-ethyl-1-[[3-fluoro-5-[[(1R,2R)-2-hydroxyindan-1-yl]carbamoyl]phenyl]methyl]-4-isopropyl-6-oxo-hexahydropyrimidin-2-ylidene]ammonium; 2,2,2-trifluoroacetate] | 6.1 | – |
| CC1(C)CC(=O)N(Cc2cccc(C(=O)N[C@@H]3c4ccccc4OC(C)(C)[C@H]3O)c2)C(=N)N1 [Example 194, [1-[[3-[[(3S,4R)-3-hydroxy-2,2-dimethyl-chroman-4-yl]carbamoyl]phenyl]methyl]-4,4-dimethyl-6-oxo-hexahydropyrimidin-2-ylidene]ammonium; 2,2,2-trifluoroacetate] | 11.6 | – |
| CC(C)[C@]1(C)CC(=O)N(Cc2cccc(C(=O)N[C@H]3CCc4ccccc43)c2)C(=N)N1 [Example 75, [(4S)-1-[[3-[[(1S)-indan-1-yl]carbamoyl]phenyl]methyl]-4-isopropyl-4-methyl-6-oxo-hexahydropyrimidin-2-ylidene]ammonium; 2,2,2-trifluoroacetate] | 66.5 | – |
| C#CCC[C@H](c1cccc(C(=O)NC2CC3(CCC3)Oc3ccccc32)c1)N1C(=N)NC(CC)(CC)CC1=O (stereo in doubt) [Example 211A, [4,4-diethyl-6-oxo-1-[(1R)-1-[3-[[(4S)-spiro[chromane-2,1′-cyclobutane]-4-yl]carbamoyl]phenyl]pent-4-ynyl]hexahydropyrimidin-2-ylidene]ammonium; 2,2,2-trifluoroacetate] | 25 | – |
| CCC[C@H](c1cccc(C(=O)N[C@H]2CCOc3ccccc32)c1)N1C(=N)N[C@@](CC)(c2ccccc2)CC1=O [Example 66, [(4R)-1-[(1R)-1-[3-[[(4S)-chroman-4-yl]carbamoyl]phenyl]butyl]-4-ethyl-6-oxo-4-phenyl-hexahydropyrimidin-2-ylidene]ammonium; 2,2,2-trifluoroacetate] | 7.5 | – |
| CCC1(CC)CC(=O)N([C@H](CCOC)c2cccc(C(=O)N[C@@H]3c4ccccc4CC3(O)C(F)(F)F)c2)C(=N)N1 (single isomer, unassigned) [Example 204B] | – | EC50 [2]: 8.5 nM |
| CCC1(CC)CC(=O)N([C@H](CCOC(F)F)c2cccc(C(=O)N[C@H]3CCOc4ccccc43)c2)C(=N)N1 [Example 164, [1-[1-[3-[[(4S)-chroman-4-yl]carbamoyl]phenyl]-3-(difluoromethoxy)propyl]-4,4-diethyl-6-oxo-hexahydropyrimidin-2-ylidene]ammonium; 2,2,2-trifluoroacetate] | 0.9 | – |
| CCC1(CC)CC(=O)N([C@H](CCOC)c2cccc(C(=O)N[C@@H]3c4ccccc4OC3(C)C)c2)C(=N)N1 [Example 181A, [1-[(1R)-1-[3-[(2,2-dimethyl-3H-benzofuran-3-yl)carbamoyl]phenyl]-3-methoxy-propyl]-4,4-diethyl-6-oxo-hexahydropyrimidin-2-ylidene]ammonium; 2,2,2-trifluoroacetate] | 3 | – |
| CCC1(CC)CC(=O)N([C@H](CCOC)c2cccc(C(=O)NC3CC(C)(C)Oc4ccccc43)c2)C(=N)N1 (stereo in doubt) [Example 72B, [1-[1-[3-[(2,2-dimethylchroman-4-yl)carbamoyl]phenyl]-3-methoxy-propyl]-4,4-diethyl-6-oxo-hexahydropyrimidin-2-ylidene]ammonium; 2,2,2-trifluoroacetate] | 0.3 | – |
| CCC[C@H](c1cccc(C(=O)N[C@H]2c3ccccc3OCC2O)c1)N1C(=N)NC(CC)(CC)CC1=O (stereo partly drawn) [Example 127A, 3-[(1R)-1-(4,4-diethyl-2-imino-6-oxo-hexahydropyrimidin-1-yl)butyl]-N-(3-hydroxychroman-4-yl)benzamide] | 97.4 | – |
| CC#CCC[C@H](c1cncc(C(=O)N[C@H]2CC(C)(C)Oc3ccccc32)c1)N1C(=N)NC(CC)(CC)CC1=O [Example 111, [1-[1-[5-[[(4S)-2,2-dimethylchroman-4-yl]carbamoyl]pyridin-1-ium-3-yl]hex-4-ynyl]-4,4-diethyl-6-oxo-hexahydropyrimidin-2-ylidene]ammonium; 2,2,2-trifluoroacetate] | 0.4 | – |
| CC(C)[C@]1(C)CC(=O)N(Cc2cccc(C(=O)NC3CC(C)(C)Oc4ccccc43)c2)C(=N)N1 (stereo partly drawn) [Example 79, [(4S)-1-[[3-[(2,2-dimethylchroman-4-yl)carbamoyl]phenyl]methyl]-4-isopropyl-4-methyl-6-oxo-hexahydropyrimidin-2-ylidene]ammonium; 2,2,2-trifluoroacetate] | 2.1 | – |
| CCC1(CC)CC(=O)N(Cc2cccc(C(=O)N[C@@H]3CCOc4ccc(Cl)cc43)c2)C(=N)N1 [Example 215A, N-(6-chlorochroman-4-yl)-3-[(4,4-diethyl-2-imino-6-oxo-hexahydropyrimidin-1-yl)methyl]benzamide] | 70 | – |
| CCC1(CC)CC(=O)N([C@H](C)c2cccc(C(=O)N[C@@H]3c4ccccc4OC(C)(C)[C@H]3O)c2)C(=N)N1 [Example 193, [4,4-diethyl-1-[(1R)-1-[3-[[(3S,4R)-3-hydroxy-2,2-dimethyl-chroman-4-yl]carbamoyl]phenyl]ethyl]-6-oxo-hexahydropyrimidin-2-ylidene]ammonium; 2,2,2-trifluoroacetate] | 0.6 | – |
| CCC1(CC)CC(=O)N([C@H](CCOC)c2cccc(C(=O)NC3c4ccccc4CCC3O)c2)C(=N)N1 (stereo partly drawn) [Example 226, 3-[(1R)-1-(4,4-diethyl-2-imino-6-oxo-hexahydropyrimidin-1-yl)-3-methoxy-propyl]-N-(2-hydroxytetralin-1-yl)benzamide] | 2.2 | – |
| CC(C)[C@]1(C)CC(=O)N([C@@H](c2cccc(C(=O)N[C@@H]3c4ccccc4C[C@H]3O)c2)C23CC(C2)C3)C(=N)N1 [Example 28, [(4S)-1-[1-bicyclo[1.1.1]pentanyl-[3-[[(1R,2R)-2-hydroxyindan-1-yl]carbamoyl]phenyl]methyl]-4-isopropyl-4-methyl-6-oxo-hexahydropyrimidin-2-ylidene]ammonium; 2,2,2-trifluoroacetate] | 1.1 | – |
| CCC1(CC)CC(=O)N([C@H](CCS(C)(=O)=O)c2cccc(C(=O)N[C@@H]3c4ccccc4OC(C)(C)[C@H]3O)c2)C(=N)N1 [Example 155, [4,4-diethyl-1-[1-[3-[[(3S,4R)-3-hydroxy-2,2-dimethyl-chroman-4-yl]carbamoyl]phenyl]-3-methylsulfonyl-propyl]-6-oxo-hexahydropyrimidin-2-ylidene]ammonium; 2,2,2-trifluoroacetate] | 17.2 | – |
| CCC1(CC)CC(=O)N(Cc2cccc(C(=O)N[C@@H]3c4ccccc4C[C@H]3O)c2)C(=N)N1 [Example 15, [4,4-diethyl-1-[[3-[[(1R,2R)-2-hydroxyindan-1-yl]carbamoyl]phenyl]methyl]-6-oxo-hexahydropyrimidin-2-ylidene]ammonium; 2,2,2-trifluoroacetate] | 2.6 | – |
| C#CCCC(c1cccc(C(=O)N[C@@H]2c3ccccc3C[C@H]2O)c1)N1C(=N)NC(CC)(CC)CC1=O (stereo in doubt) [Example 221, 3-[(1S)-1-(4,4-diethyl-2-imino-6-oxo-hexahydropyrimidin-1-yl)pent-4-ynyl]-N-[(1R,2R)-2-hydroxyindan-1-yl]benzamide] | 35.4 | – |
| CC[C@]1(C)CC(=O)N([C@H](CCOC)c2cccc(C(=O)NC3c4cc(F)ccc4OC(C)(C)C3(C)O)c2)C(=N)N1 (single isomer, unassigned) [Example 237A] | – | EC50 [2]: 54.6 nM |
| CC[C@]1(C)CC(=O)N(C(CCOC(F)F)c2cccc(C(=O)NC3c4ccccc4OC(C)(C)C3(C)O)c2)C(=N)N1 (single isomer, unassigned) [Example 240B] | – | EC50 [2]: 0.25 nM |
| CCC1(CC)CC(=O)N([C@H](CCS(C)(=O)=O)c2cccc(C(=O)N[C@@H]3c4ccccc4C[C@]3(C)O)c2)C(=N)N1 [Example 154B, 3-[1-(4,4-diethyl-2-imino-6-oxo-hexahydropyrimidin-1-yl)-3-methylsulfonyl-propyl]-N-[(1R,2S)-2-hydroxy-2-methyl-indan-1-yl]benzamide] | – | EC50 [2]: 69 nM |

Reference: patent US12629374B2, “Antimalarial agents” (Merck Sharp & Dohme LLC, priority 2020, dated 2026)
